In patent EP4624482A1, “PYRIMIDOPYRIMIDINONE COMPOUND AND PHARMACEUTICAL COMPOSITION COMPRISING SAME” (Axceso Biopharma Co., Ltd., priority 2022, dated 2024):

System: C57BL/6 mice
Experiment: Acute respiratory distress syndrome induced by CLP: lung histology, lung injury score, wet-to-dry weight ratio
Assay type: in vivo
Details: treated at 6 and 16 hours after CLP, lungs harvested at 18 hours
Procedure: CLP induces pulmonary edema due to increased inflammation and disruption of the vascular barrier, resulting in acute respiratory distress syndrome (ARDS). To determine the effect on ARDS, the compound of formula (1a-1) was treated at 6 and 16 hours after CLP treatment in the same manner as in Experimental Example 7 above, the lungs of mice were harvested at 18 hours for histological analysis, and the wet-to-dry weight ratio of the lungs was obtained. For comparison, mice without CLP treatment served as a control group.
For histologic analysis, the harvested lungs were fixed in 10% paraformaldehyde, infiltrated with paraffin, sectioned into 5 µm-thick tissues, and then de-paraffinized with xylene. Sectioned tissues were mounted on slides, stained with H&E, and observed under an optical microscope. In addition, the lung tissue damage was evaluated by histological score to obtain the lung injury score (LIS) for each group.
To calculate the wet-to-dry weight ratio, lung organs were harvested 18 hours after CLP treatment, and the wet weight was measured immediately after harvesting, and the dry weight was measured after drying in an oven at 60°C for 48 hours to calculate the wet-to-dry weight ratio. The wet-to-dry weight ratio is used as an indicator of organ edema formation.

In the case of CCCCCCCCCCCCCC[C@H]1OP(=O)(O)O[C@H]1[C@@H](N)CO.Cl [formula (1a-1), (4S,5R)-4-((S)-1-amino-2-hydroxyethyl)-2-hydroxy-5-tetradecyl-1,3,2-dioxaphosphoran-2-oxide hydrochloride], the lung injury score is reported as “almost restores the lung injury score to normal”, the “lung tissue (optical microscope, H&E)” value is reported as “almost restored to normal” and the “wet-to-dry weight ratio of the lung” value is reported as “restores the wet-to-dry weight ratio of the lung to normal”.
